The source of these data is patent publication US20230003715A1, “AZAPODOPHYLLOTOXIN DERIVATIVES AND METHODS OF TREATING LYMPHOMA AND KIDNEY CANCER” (The Board of Trustees of the Leland Stanford Junior …, priority 2019, published 2023).

For one data set, the system named is human RCC A498 cell line. The data set is described as follows: Proliferation / viability of human RCC A498 cell line. The conditions noted are these: for reduction in viability / suppression: 70 nM, 48 hours, human RCC A498; for SAR analysis: relative activity: RCC cell lines, substitution on C-4 phenyl ring. The format is cell-based. From the text: (§1) A 50 microliter volume of cells was taken from the culture medium and combined with an equal volume of 0.4% Trypan blue stain. Then, 10 microliters of this 1:1 mixture was pipetted onto a slide and placed into a hemocytometer for cell counting. The viable cell count was used for measuring cell proliferation in the sample.
To further expand the structure activity relationship (SAR), six additional AZP derivatives were synthesized: AR-02, AR-03, AR-038, AR-051, AR-061 and AR-065, with different substituents on the C-4 phenyl ring (FIG. 1). Having validated that exemplary AZP compounds show efficacy in our murine-derived RCC line, it was sought to determine if this finding could be relevant in human RCC line, A498. Exemplary compound NSC750212 and newly synthesized analogues were tested in A498 cell line (FIG. 3).

The test system of the next data set is murine RCC E28 cells. The data set is described as follows: Proliferation of murine RCC E28 cells (viable cell count). Format: cell-based. The note with it: for sensitivity of MYC-driven RCC line to compound: 140 nM and 70 nM.
Source text: In addition, murine renal cell carcinoma E28 cell line was used in this study. These cells were maintained in DMEM supplemented with 10% (vol/vol) FBS, 1% glutamine, 1% sodium pyruvate, 1% non-essential amino acids, and Antibiotic-Antimycotic.
as §1
Activity of compounds NSC750212, NSC750719, NSC750722, and NSC756089 (see, FIG. 1) was investigated on a MYC-driven RCC line derived from a transgenic mouse model using low dose ranges of 280 nM, 140 nM, and 70 nM. […] FIG. 2, illustrates the results of treatment of murine RCC E28 cells with, from left to right: DMSO and corresponding AZP derivatives at concentrations of 70 nM, 140 nM and 280 nM. Even at 70 nM, NSC750212 causes about 90% reduction of cell proliferation compared to the vehicle control (DMSO).

The subject of the next data set is CCRF (T lymphoblast). The data set is described as follows: Proliferation of lymphoma line CCRF. Format: cell-based, human.
Source text: (§2) Human T-cell acute lymphoblastic leukemias CCRF, DND-41, KOPT-K1, human B-cell Burkitt's lymphoma P493-6, and murine lymphoma 6780 were used in this study. Human and mouse lymphomas were all maintained in RPMI supplemented with 10% (vol/vol) FBS, 1% glutamine, 1% sodium pyruvate, 1% non-essential amino acids, and Antibiotic-Antimycotic. All cell culture reagents used were obtained from Gibco (Thermo Fisher Scientific Inc.).
as §1
(§3) Activity of exemplary compounds against lymphomas was also investigated. […] FIG. 4 illustrates proliferative responses of various human lymphoma lines, from left to right: CCRF, DND-41, KOPR, and MYC-driven lymphoma lines P493 and 6780, at doses of 70 nM, 140 nM, and 280 nM vs a control (DMSO). […] KOPT and P-493 still show a significant but much less suppression, at roughly 85%. At 140 nM, CCRF and 6780 show an increase in suppression at roughly 92% and 94%, respectively.

Data set [1] deals with DND-41 (child T lymphoblastic leukemia). The data set is described as follows: Proliferation of lymphoma line DND-41. The format is cell-based, human.
Source text: as §2, §1, §3

The subject of the next data set is KOPT-K1 (human T-ALL). Description: Proliferation of lymphoma line KOPT-K1. Format: cell-based.
Source text: as §2, §1, §3

Data set [2] concerns human B-cell Burkitt's lymphoma P493-6. Description: Proliferation of MYC-driven lymphoma line P493-6. Format: cell-based. The note with it: P-493.
Source text: as §2, §1, §3

In a further data set the test system is murine lymphoma 6780. Description: Proliferation of MYC-driven lymphoma line 6780. Format: cell-based.
Source text: as §2, §1, §3

The subject of data set [3] is human RCC A498 xenografts. Description: Human RCC A498 xenograft in NSG mice. Format: in vivo. The conditions noted are these: intratumoral treatment for a week, vs DMSO control.
The subject of data set [4] is human MYC-driven Burkitt Lymphoma line P493 xenografts. The data set is described as follows: Human lymphoma P493 xenograft in NSG mice. Format: in vivo. The note with it: intratumoral treatment for a week, vs DMSO control.
The test system of a further data set is bovine tubulin. The data set is described as follows: Tubulin Polymerization Assay (EMD Millipore). Format: biochemical. The conditions noted are these: compared to positive control Nocodazole and negative control Paclitaxel. As for the experimental part: The Tubulin Polymerization Assay (EMD Millipore) was used to confer the mechanism of azapodophyllotoxin derivatives. The polymerization reaction was conducted in a 96-well plate. Paclitaxel was used as the non-tubulin-inhibiting negative control, and Nocodazole was used as the tubulin-inhibiting positive control. First, a solution of 99% pure bovine tubulin stock solution in 1× polymerization buffer (PB) containing 1 mM GTP was made. Second, a 1:9 mixture of each drug and control with PB-GTP solution was also prepared. In each well, 60 microliters of the first solution (99% tubulin solution in 1×PB and 1 mM GTP) was combined with 60 microliters of one of each of the prepared 1:9 drug to PB-GTP solutions. All solutions were prepared on ice prior to combining and placement into the spectrophotometer. Tubulin assembly was measured through turbidity variation (light scattering) in the spectrophotometer every 30 seconds at 350 nm (with shaking in between each reading) over the course of 90 minutes.
Given the structure of NSC750212 and computational docking studies of Azapodophyllotoxins in general, it has been stipulated that they may target tubulins. Using EMD Millipore Tubulin Polymerization Assay, NSC750212 was compared to a negative control, Paclitaxel, and a positive control, Nocodazole, to determine whether its mechanism is via the inhibition of tubulin polymerization.

A further data set relates to tubulin. Description: Nano-fluidic proteomic immunoassay (NIA) of tubulin in treated tumors. The format is in vivo, human. As for the experimental part: NIA was performed using the ProteinSimple Nanopro 1000 machine. The final protein concentration loaded into each nano-fluidic capillary of the machine was 0.1 ug/uL. The primary antibody for Tubulin (Cell Signaling Technologies) was diluted 1:100. The primary antibody for HSP70 (Santa Cruz Biosciences) was diluted 1:500. The secondary anti-rabbit and anti-mouse HRP-conjugates were both diluted 1:100. Chemiluminescence signal was recorded after the addition of the detection reagent, which consists of a 1:1 ratio of luminol and peroxide. Analysis of the chemiluminescence data from NIA was performed via the ProteinSimple Compass software.
Fine needle aspirations (FNAs) are defined to be biopsies performed via the aspiration of the tumor using a needle of […] or smaller. Core biopsies are any biopsies done using a needle larger than […]. Techniques for performing FNAs and core biopsies are similar. The needle tip is plunged into the tumor and retracted, in a fast and repetitive motion, while applying suction at the needle tip. […]
To investigate if this mechanism is consistent in vivo, we used the Nano ImmunoAssay to analyze core biopsies and fine needle aspirates (FNA) of tumors during the course of treatment with NSC750212. […] There are no other charged isoforms of tubulin detected by NIA (FIG. 7, panel D).

In the next data set the test system is monoglycerols. Description: DESI-MSI of monoglycerols in treated RCC. Format: in vivo, mouse. The conditions noted are these: primary MYC-driven RCC, upon termination of treatment. From the text:
DESI-MSI functions by directing a pneumatically assisted solvent electrospray onto the surface of interest (Takats, Wiseman, Gologan, & Cooks, 2004). The electrosprayed solvent droplets dissolve certain chemical constituents off the surface investigated and also induce the formation of secondary charged-droplets that take off from the surface. These secondary droplets already contain constituents of the sample and produce molecular ions of the analytes upon evaporation in the atmospheric pressure interface of the mass spectrometer. This way, electrospray-like mass spectrometric information is obtained on the sample, featuring multiply charged ions and solvent adducts among other electrospray-specific spectral features.
Though we expected a complete depletion of metabolism upon tubulin inhibition by NSC750212, our DESI-MSI analyses uncover a more interesting mechanism. […] Monoglycerol metabolism has been implicated in cancer, due to the high need of cancer cells of energy and building blocks. […] As described herein, DESI-MSI is a valuable tool for use in uncovering the mechanism of action of exemplary azapodophyllotoxin derivatives.

The structures appear in SMILES notation.

As to `O=C1OCC2=C1C(c1cccc(Br)c1)c1cc3c(cc1N2CCO)CCC3` (centres unmarked) [AR-038], in the data set on human RCC A498 cell line, the “reduction in viability / suppression” value stood at 90% and the “SAR analysis: relative activity” value is “promising activity”.

Regarding `COc1cc(C2C3=C(COC3=O)N(CCO)c3cc4c(cc32)CCC4)cc(OC)c1OC` (centres unmarked) [NSC750212], the “reduction of cell proliferation compared to the vehicle control (DMSO)” value in the data set on murine RCC E28 cells (70 nM, 48 hours) is reported as “about 90%”. In addition, in the data set on murine RCC E28 cells (140 nM, 48 hours), the “suppression of proliferation when compared to 70 nM” value is “two-fold”. Besides, in the data set with murine RCC E28 cells (280 nM), the “sensitivity of MYC-driven RCC line to compound” value (“sensitivity” below) was “very high sensitivity”. The “efficacy at higher concentration than 140 nM” value in the data set on murine RCC E28 cells (280 nM, 48 hours) is listed as “no further efficacy”. In addition, the “reduction in viability / suppression” value in the data set on human RCC A498 cell line came to 95%. The “SAR analysis: relative activity” value in the data set on human RCC A498 cell line is on record as “most active”. Moreover, the reduction in proliferation in the data set with CCRF (T lymphoblast) (70 nM, vs control (DMSO)) is roughly 90%; in data set [1] (70 nM), roughly 95%; in data set [2] (140 nM), “over 90%”; in the data set on murine lymphoma 6780 (70 nM), roughly 90%. The suppression of proliferation result with CCRF (T lymphoblast) (140 nM) is “roughly 92%”; in the data set with CCRF (T lymphoblast) (280 nM), “about 96%”; with KOPT-K1 (human T-ALL) (70 nM) it was “roughly 85%”; with KOPT-K1 (human T-ALL) (140 nM), “roughly 87%”; in data set [2] (70 nM), “roughly 85%”; in data set [2] (280 nM), roughly 98%. Also, the suppression of proliferation in the data set on murine lymphoma 6780 (140 nM) is recorded as roughly 94%; in the data set on murine lymphoma 6780 (280 nM) it was “maximal suppression”. Besides, the dose response result in the data set on CCRF (T lymphoblast) (70, 140, 280 nM) is reported as “dose-dependent response”; in the data set with KOPT-K1 (human T-ALL) (70, 140, 280 nM), “dose-dependent response”; in data set [2] (70, 140, 280 nM), “dose-dependent response”; in the data set on murine lymphoma 6780 (70, 140, 280 nM), “dose-dependent response”. The “maximal dose (maximally effective dose)” value in [1] worked out at 70 nM. Further, in [1] (140 nM), the “change in suppression vs 70 nM” value is reported as “no dose response”. Moreover, the reduction of proliferation entry with KOPT-K1 (human T-ALL) (280 nM) is given as “roughly 89%”. Also, the tumor burden result in [3] and in [4] was “significant reduction in tumor burden” throughout. Also, the “inhibition of tubulin polymerization (turbidity at 350 nm over 90 minutes)” value in the data set on bovine tubulin is reported as “more efficacious than Nocodazole”. In addition, the “lowered levels of tubulin expression vs control” value with tubulin (core biopsy of tumor during treatment) and in the data set with tubulin (fine needle aspirate (FNA) of tumor during treatment) was “at least two-fold” in each case. In addition, the “levels of monoglycerols compared to untreated RCC” value in the data set on monoglycerols is listed as “elevated levels of monoglycerols”.

Consider `COc1cccc(C2C3=C(COC3=O)N(CCO)c3cc4c(cc32)CCC4)c1` (centres unmarked) [NSC750719], for which the “sensitivity” value in the data set with murine RCC E28 cells (280 nM) is listed as “very high sensitivity”.

Take `COc1cccc(C2C3=C(COC3=O)N(CCO)c3cc4c(cc32)OCCO4)c1` (centres unmarked) [NSC750722]: the “sensitivity” value with murine RCC E28 cells (280 nM) is “very high sensitivity”.
